In US20230092163A1, “COMPOUNDS AND COMPOSITIONS FOR TREATING CONDITIONS ASSOCIATED WITH STING ACTIVITY” (IFM Due, Inc., priority 2019, published 2023):

These compounds were tested against STING (Homo sapiens, UniProt Q86WV6, G230A/H232R/R293Q/R71H) (assay: STING reporter assay: THP1-Dual KO-IFNAR2 cells stimulated with 2′3′cGAMP, luciferase reporter activity). Settings: 15 μM 2′3′cGAMP, 24h, class symbols.
Format: cell-based
In short: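 THP1-Dual KO-IFNAR2 cells (2×10E6 cells/mL) treated with compounds at 0.0017-100 μM, then stimulated with 2′3′cGAMP (15 μM final) delivered by Lipofectamine 2000; 24 h at 37° C. Supernatant luciferase read by QUANTI-Luc Plus luminescence; EC50 from dose-response.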

Sequence of STING (Q86WV6 whole entry R71H/G230A/H232R/R293Q): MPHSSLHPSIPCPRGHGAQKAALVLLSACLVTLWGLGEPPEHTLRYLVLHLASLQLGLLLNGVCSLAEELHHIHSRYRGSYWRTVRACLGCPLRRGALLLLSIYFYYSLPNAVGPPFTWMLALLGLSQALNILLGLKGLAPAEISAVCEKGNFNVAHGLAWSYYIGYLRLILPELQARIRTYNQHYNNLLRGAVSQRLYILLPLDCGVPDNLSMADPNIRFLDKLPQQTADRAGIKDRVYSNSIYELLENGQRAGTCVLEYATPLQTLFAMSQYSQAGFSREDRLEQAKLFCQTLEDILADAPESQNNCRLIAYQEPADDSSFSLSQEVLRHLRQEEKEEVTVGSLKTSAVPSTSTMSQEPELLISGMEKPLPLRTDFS

Row | EC50 [µM] | Structure (SMILES)
1 | 0.2 to 1 | O=C(Nc1ccc(C(F)(F)F)c(Cl)c1)Nc1ccc2cc[nH]c2c1 [Compound 244]
2 | 5 to 100 | Cc1cccc(CNC(=O)Nc2ccc3cc[nH]c3c2)c1 [Compound 225]
3 | 5 to 100 | O=C(Nc1cccc(OC(F)F)c1)Nc1ccc2[nH]ccc2c1 [Compound 343]
4 | 0.2 to 1 | CC(C)c1ccc(NC(=O)Nc2ccc3cc[nH]c3c2)cc1 [Compound 234]
5 | 1 to 5 | O=C(NCc1ccc(C(F)(F)F)c(Cl)c1)Nc1ccc2cc[nH]c2c1 [Compound 206]
6 | 0.2 to 1 | O=C(Nc1ccc(C2CC(F)(F)C2)c(F)c1)Nc1ccc2cc[nH]c2c1 [Compound 240]
7 | 1 to 5 | O=C(NCCCc1cncc(C(F)(F)F)c1)Nc1ccc2cc[nH]c2c1 [Compound 177]
8 | 1 to 5 | O=C(Nc1ccnc(C(F)(F)F)c1)Nc1ccc2cc[nH]c2c1 [Compound 250]
9 | 0.04 to 0.2 | O=C(Nc1ccc(C(F)(F)F)c(F)c1)Nc1ccc2cc[nH]c2c1 [Compound 253]
10 | 0.2 to 1 | O=C(Nc1ccc(F)c(F)c1)Nc1ccc2cc[nH]c2c1 [Compound 164]
11 | 0.2 to 1 | O=C(Nc1ccc2cc[nH]c2c1)Nc1ccc(C(F)(F)F)cn1 [Compound 269]

Second part, the compound before the results:

Row | Structure (SMILES) | EC50 [µM]
12 | Fc1cc(C(F)(F)F)c2ccc(Nc3ccc4cc[nH]c4c3)nc2c1 [Compound 558] | 0.2 to 1
13 | FC(F)(F)c1nc(Nc2cc(Cl)c3cc[nH]c3c2)ccc1Cl [Compound 568] | 0.2 to 1
14 | FC(F)(F)c1ccc2ncc(Nc3ccc4cc[nH]c4c3)nc2c1 [Compound 555] | 1 to 5
15 | COc1nc(Nc2ccc3cc[nH]c3c2)ccc1F [Compound 391, N-(5-fluoro-6-methoxypyridin-2-yl)-1H-indol-6-amine] | 5 to 100
16 | FC(F)(F)c1ccc(Nc2ccc3cc[nH]c3c2)nc1Cl [Compound 591] | 1 to 5
17 | O=C(Nc1cc(F)cc(C(F)(F)F)c1)Nc1cc(CCO)c2cc[nH]c2c1 [Compound 501] | 1 to 5
18 | COC(=O)c1cc(NC(=O)Nc2ccc(C(F)(F)F)cc2)cc2[nH]ccc12 [Compound 165] | 0.2 to 1
19 | c1ccc(-c2ccc(Nc3ccc4cc[nH]c4c3)nc2)cc1 [Compound 424, N-(5-phenylpyridin-2-yl)-1H-indol-6-amine] | 1 to 5
20 | CN(C(=O)Nc1ccc(C(F)(F)F)cc1)c1ccc2[nH]ccc2c1 [Compound 376] | 5 to 100
21 | C[C@@H](NC(=O)Nc1cc(Cl)c2cc[nH]c2c1)c1cc(Cl)cc(C(F)(F)F)c1 [Compound 521, (R)-1-(4-chloro-1H-indol-6-yl)-3-(1-(3-chloro-5-(trifluoromethyl)phenyl)ethyl)urea] | 1 to 5
22 | O=C(Nc1ccc(OC2CC(F)(F)C2)nc1)Nc1ccc2cc[nH]c2c1 [Compound 248] | 0.2 to 1
23 | Fc1cc2ccc(Nc3ccc4cc[nH]c4c3)nc2cc1C(F)(F)F [Compound 551] | 0.2 to 1
24 | Cc1ccc2nc(Nc3ccc4cc[nH]c4c3)ccc2c1C(F)(F)F [Compound 549] | 0.2 to 1
25 | FC(F)(F)c1ccc2c(Cl)cc(Nc3ccc4cc[nH]c4c3)nc2c1 [Compound 562, 4-chloro-N-(1H-indol-6-yl)-7-(trifluoromethyl)quinolin-2-amine] | 5 to 100
26 | CNC(=O)c1cc(NC(=O)Nc2ccc(C(F)(F)F)cc2)cc2[nH]ccc12 [Compound 543] | 5 to 100
27 | CC(C)(C)OC(=O)N1CCC(c2ccnc(Nc3ccc4cc[nH]c4c3)n2)CC1 [Compound 429, tert-butyl4-(2-((1H-indol-6-yl)amino)pyrimidin-4-yl)piperidine-1-carboxylate] | 5 to 100
28 | C[C@H](NC(=O)Nc1cc(Cl)c2cc[nH]c2c1)c1cc(Cl)cc(C(F)(F)F)c1 (single isomer, unassigned) [Compound 520] | 0.2 to 1
29 | CNC(=O)Nc1ccc2[nH]cc(NC(=O)Nc3ccc(C(F)(F)F)cc3)c2c1 [Compound 275] | 1 to 5
30 | CC(C)(C)OC(=O)N1Cc2cnc(Nc3ccc4cc[nH]c4c3)nc2C1 [Compound 418, tert-butyl 2-((1H-indol-6-yl)amino)-5H-pyrrolo[3,4-d]pyrimidine-6(7H)-carboxylate] | 5 to 100
31 | CN(C)Cc1cc(NC(=O)Nc2ccc(C(F)(F)F)cc2)cc2[nH]ccc12 [Compound 546] | 5 to 100
32 | CC(NC(=O)Nc1cnc2cc[nH]c2c1)c1cc(Cl)cc(C(F)(F)F)c1 (stereo not shown) [Compound 506] | 5 to 100
33 | FC(F)c1ccc2ccc(Nc3ccc4cc[nH]c4c3)nc2c1 [Compound 586, 7-(difluoromethyl)-N-(1H-indol-6-yl)quinolin-2-amine] | 1 to 5
34 | c1cc2ccc(Nc3ccc4ccc(C5CCCCC5)cc4n3)cc2[nH]1 [Compound 389, 7-cyclohexyl-N-(1H-indol-6-yl)quinolin-2-amine] | 1 to 5
35 | Cc1cc2cc[nH]c2cc1Nc1ccc2ccc(C(F)(F)F)cc2n1 [Compound 580, N-(5-methyl-1H-indol-6-yl)-7-(trifluoromethyl)quinolin-2-amine] | 5 to 100
36 | c1cc2ccc(Nc3ccc4ccc(C5CCC5)cc4n3)cc2[nH]1 [Compound 386] | 1 to 5
37 | N#Cc1cc2ccc(NC(=O)Nc3ccc(C(F)(F)F)cc3)cc2[nH]1 [Compound 255] | 5 to 100
38 | Clc1ccc2ccc(Nc3ccc4cc[nH]c4c3)nc2c1 [Compound 589, 7-chloro-N-(1H-indol-6-yl)quinolin-2-amine] | 0.2 to 1

Same assay, conditions: 15 μM 2′3′cGAMP, 24h, numeric bounds

Row | EC50 [µM] | Structure (SMILES)
39 | > 30 | Cc1ccccc1CCNC(=O)Nc1ccc2[nH]ccc2c1 [Compound 324]
40 | > 30 | O=C(NCC1CCC1)Nc1ccc2cc[nH]c2c1 [Compound 216]
41 | > 30 | O=C(NCCc1ccccc1Cl)Nc1ccc2[nH]ccc2c1 [Compound 355]
42 | > 30 | O=C(Nc1ccc2[nH]ccc2c1)Nc1ccccc1Cl [Compound 362]
43 | > 30 | O=C(Nc1ccc(S(=O)(=O)N2CCCC2)cc1)Nc1ccc2[nH]ccc2c1 [Compound 284]
44 | > 30 | N#Cc1cc(F)cc(NC(=O)Nc2ccc3cc[nH]c3c2)c1 [Compound 193]
45 | > 30 | O=C(NCc1cnccn1)Nc1ccc2cc[nH]c2c1 [Compound 219]
46 | > 30 | O=C(Nc1ccc(Oc2c(F)cccc2F)cc1)Nc1ccc2[nH]ccc2c1 [Compound 278]
47 | > 30 | Cc1ccc(CNC(=O)Nc2ccc3cc[nH]c3c2)cc1C [Compound 223]
48 | > 30 | N#Cc1ccc(NC(=O)Nc2ccc3[nH]ccc3c2)cc1 [Compound 361]
49 | > 30 | CC(C)CCNC(=O)Nc1ccc2[nH]ccc2c1 [Compound 329]
50 | > 30 | O=C(NCC1(c2cccc(Cl)c2)CCOCC1)Nc1ccc2[nH]ccc2c1 [Compound 274]
51 | > 30 | Cc1cc(CNC(=O)Nc2ccc3cc[nH]c3c2)nn1C [Compound 185]
52 | > 30 | Cc1cc(CNC(=O)Nc2ccc3[nH]ccc3c2)nn1C [Compound 322]
53 | > 30 | CCS(=O)(=O)c1ccc(CNC(=O)Nc2ccc3cc[nH]c3c2)cn1 [Compound 179]
54 | > 30 | CCOc1ccc(-c2cc(NC(=O)Nc3ccc4[nH]ccc4c3)on2)cc1 [Compound 297]
55 | > 30 | CC(C)(C)c1cc(NC(=O)Nc2ccc3[nH]ccc3c2)on1 [Compound 305]
56 | > 30 | CC(Cc1cccc(C(F)(F)F)c1)NC(=O)Nc1ccc2[nH]ccc2c1 (stereo not shown) [Compound 288]
57 | > 30 | O=C(NCCc1ccc(Br)cc1)Nc1ccc2[nH]ccc2c1 [Compound 353]
58 | > 30 | O=C(Nc1ccc2[nH]ccc2c1)Nc1ccccc1F [Compound 364]
59 | > 30 | Cn1cc(NC(=O)Nc2ccc3[nH]ccc3c2)cn1 [Compound 306]
60 | > 30 | O=C(Nc1ccc2cc[nH]c2c1)NC1Cc2ccccc2C1 [Compound 161]
61 | > 30 | CC(C)(C)OC(=O)N1CC(CCNC(=O)Nc2ccc3cc[nH]c3c2)C1 [Compound 178]

Second part, the compound before the results:

Row | Structure (SMILES) | EC50 [µM]
62 | Cc1c(Nc2ccc3ccc(C(F)(F)F)cc3n2)ccc2cc[nH]c12 [Compound 557] | > 30
63 | CC1(C)Oc2ccc(Nc3ccc4cc[nH]c4c3)nc2NC1=O [Compound 585, 6-[(1H-indol-6-yl)amino]-2,2-dimethyl-2H,3H,4H-pyrido[3,2-b][1,4]oxazin-3-one] | > 30
64 | O=S(=O)(c1ccc(Nc2ccc3cc[nH]c3c2)nc1)N1CCCC1 [Compound 423, N-(5-(pyrrolidin-1-ylsulfonyl)pyridin-2-yl)-1H-indol-6-amine] | > 30
65 | CN(C(=O)Nc1ccc2cc[nH]c2c1)c1ccc(C(F)(F)F)cc1 [Compound 267] | > 67.1
66 | CCc1ccnc(Nc2ccc3cc[nH]c3c2)c1 [Compound 392, N-(4-ethylpyridin-2-yl)-1H-indol-6-amine] | > 30
67 | c1cnc(Nc2ccc3cc[nH]c3c2)c(C2CC2)c1 [Compound 394, N-(3-cyclopropylpyridin-2-yl)-1H-indol-6-amine] | > 30
68 | Cc1nc(Nc2ccc3cc[nH]c3c2)ccc1C#N [Compound 598, 6-((1H-indol-6-yl)amino)-2-methylnicotinonitrile] | > 30
69 | CC(=O)c1c[nH]c2cc(NC(=O)Nc3ccc(C(F)(F)F)cc3)ccc12 [Compound 522] | > 30
70 | O=C(Nc1ccc(C(F)(F)F)cc1)Nc1cc(CO)c2cc[nH]c2c1 [Compound 157] | > 30
71 | N#Cc1cc(NC(=O)Nc2cnc(N3CC(F)(F)C3)c(F)c2)cc2[nH]ccc12 [Compound 511] | > 30
72 | CCCCC1CCC(NC(=O)Nc2ccc3[nH]c(Cl)cc3c2)CC1 (stereo not shown) [Compound 372] | > 100
73 | N#Cc1ccc(OC2CCC(NC(=O)Nc3ccc4[nH]ccc4c3)CC2)cc1 (stereo not shown) [Compound 308] | > 30
74 | O=C(Nc1ccc(C(F)(F)F)cc1)Nc1cc(C(=O)O)c2cc[nH]c2c1 [Compound 166] | > 30
75 | c1ccc(-c2cccc(Nc3ccc4cc[nH]c4c3)n2)cc1 [Compound 427, N-(6-phenylpyridin-2-yl)-1H-indol-6-amine] | > 20.4
76 | Cn1ccc2cc(NC(=O)Nc3ccc(C(F)(F)F)cc3)ccc21 [Compound 377] | > 100
